Laboratory results: the OligoGym collection
Several values for one entry are separate records, joined by “and”; a condition that tells them apart may be missing. Identical values can stand only once. After the bases stand the sugars from the 5' end (letter, count) and the backbone: PS all phosphorothioate, else s phosphorothioate and o phosphodiester by linkage. Methylation of C is not given here. e = 2'-O-(2-methoxyethyl) (MOE); k = constrained ethyl (cEt); d = 2'-deoxy (DNA)

Biological target: IRF4
Conditions: ASO

**Q.** How did the target mRNA inhibition (MM.1R, 1 µM) turn out when “AGTTGTAAATGAGTCG (sugars kkdddddddddkdkdk, PS)” was run?
**A.** The target mRNA inhibition was 39%.

**Q.** How did the target mRNA inhibition (MM.1R, 0.074 µM) turn out when “AGTTGTAAATGAGTCG (sugars kkkddddddddkekek, PS)” was run?
**A.** The target mRNA inhibition was 18%.

**Q.** And the target mRNA inhibition (MM.1R, 0.222 µM)?
**A.** The target mRNA inhibition was 46%.

**Q.** What about the target mRNA inhibition (MM.1R, 0.666 µM) of the same sequence?
**A.** Its target mRNA inhibition is 49%.

**Q.** And the target mRNA inhibition (MM.1R, 1 µM)?
**A.** Its target mRNA inhibition is 61%.

**Q.** What about the target mRNA inhibition (MM.1R, 2 µM) of the same sequence?
**A.** The target mRNA inhibition was 73%.

**Q.** Which results are given for AGTTTAAGGGTTACGC (sugars k3 d10 k3, PS)?
**A.** target mRNA inhibition (MM.1R, 0.0625 µM): -2% and 15%; target mRNA inhibition (MM.1R, 0.074 µM): 7%; target mRNA inhibition (MM.1R, 0.222 µM): 8%; target mRNA inhibition (MM.1R, 0.666 µM): 20%; target mRNA inhibition (MM.1R, 1 µM): 4% and 24%; target mRNA inhibition (MM.1R, 2 µM): 28%; target mRNA inhibition (MM.1R, 4 µM): 22% and 40%; target mRNA inhibition (SK-MEL-28, 4 µM): 63%

**Q.** For AGTTTACTAACTGGCT (sugars k3 d10 k3, PS), which target mRNA inhibition (SK-MEL-28, 4 µM) is on record?
**A.** The target mRNA inhibition was 63%.

**Q.** For ATAAAGGACCCCGCCA (sugars k3 d10 k3, PS), which target mRNA inhibition (SK-MEL-28, 4 µM) is on record?
**A.** Its target mRNA inhibition is 18%.

**Q.** For ATAACATGAGAGTGTT (sugars k3 d10 k3, PS), which target mRNA inhibition (MM.1R, 1 µM) is on record?
**A.** Its target mRNA inhibition is -17%.

**Q.** Which target mRNA inhibition (SK-MEL-28, 4 µM) does the source give for ATAACGAGGTGCCTTA (sugars k3 d10 k3, PS) here?
**A.** Its target mRNA inhibition is 13%.

**Q.** With ATAACGGTGTTTCAGA (sugars k3 d10 k3, PS) as the sequence, how does the target mRNA inhibition (SK-MEL-28, 4 µM) read?
**A.** Its target mRNA inhibition is 47%.

**Q.** With ATAAGAAGCACTGGCA (sugars k3 d10 k3, PS) as the sequence, how does the target mRNA inhibition (SK-MEL-28, 4 µM) read?
**A.** Its target mRNA inhibition is 51%.

**Q.** With ATAAGATCCCACGAAG (sugars k3 d10 k3, PS) as the sequence, how does the target mRNA inhibition (SK-MEL-28, 4 µM) read?
**A.** The target mRNA inhibition was -42%.

**Q.** For ATACATCACTGCAGTT (sugars k3 d10 k3, PS), which target mRNA inhibition (SK-MEL-28, 4 µM) is on record?
**A.** The target mRNA inhibition was 36%.

**Q.** With ATACATTCACACTGCC (sugars k3 d10 k3, PS) as the sequence, how does the target mRNA inhibition (SK-MEL-28, 4 µM) read?
**A.** The target mRNA inhibition was 45%.

**Q.** For ATAGCTGTTTATTTCC (sugars k4 d8 k4, PS), which target mRNA inhibition (MM.1R, 0.074 µM) is on record?
**A.** Its target mRNA inhibition is 7%.

**Q.** And the target mRNA inhibition (MM.1R, 0.222 µM)?
**A.** The target mRNA inhibition was 6%.

**Q.** And the target mRNA inhibition (MM.1R, 0.666 µM)?
**A.** The target mRNA inhibition was 11%.

**Q.** What about the target mRNA inhibition (MM.1R, 2 µM) of the same sequence?
**A.** The target mRNA inhibition was 32%.

**Q.** What about the target mRNA inhibition (SK-MEL-28, 0.185 µM) of the same sequence?
**A.** Its target mRNA inhibition is -2% and -10% and -3%.

**Q.** And the target mRNA inhibition (SK-MEL-28, 4 µM)?
**A.** The target mRNA inhibition was 59%.

**Q.** What about the target mRNA inhibition (SK-MEL-28, 15 µM) of the same sequence?
**A.** Its target mRNA inhibition is 81% and 79% and 91%.

**Q.** With ATAGTAGGTAAGATCT (sugars k3 d10 k3, PS) as the sequence, how does the target mRNA inhibition (SK-MEL-28, 4 µM) read?
**A.** The target mRNA inhibition was -13%.

**Q.** For ATAGTTGTCTGGCTAG (sugars k3 d10 k3, PS), which target mRNA inhibition (SK-MEL-28, 4 µM) is on record?
**A.** Its target mRNA inhibition is 52%.

**Q.** ATATACATTGAGGCAT (sugars k3 d10 k3, PS) was tested. Which target mRNA inhibition (MM.1R, 1 µM) did it give?
**A.** The target mRNA inhibition was -31%.

**Q.** Which target mRNA inhibition (SK-MEL-28, 4 µM) does the source give for ATATGACGACTTAAGC (sugars k3 d10 k3, PS) here?
**A.** The target mRNA inhibition was 38%.

**Q.** ATCACGAGGTTGCCGA (sugars k3 d10 k3, PS) was tested. Which target mRNA inhibition (SK-MEL-28, 4 µM) did it give?
**A.** The target mRNA inhibition was 60%.

**Q.** For ATCAGATACACACCCT (sugars k3 d10 k3, PS), which target mRNA inhibition (SK-MEL-28, 4 µM) is on record?
**A.** The target mRNA inhibition was -8%.

**Q.** ATCAGATGATGTCTAG (sugars k3 d10 k3, PS) was tested. Which target mRNA inhibition (SK-MEL-28, 4 µM) did it give?
**A.** The target mRNA inhibition was -3%.

**Q.** With ATCCAGAGGACCACGC (sugars k3 d10 k3, PS) as the sequence, how does the target mRNA inhibition (SK-MEL-28, 4 µM) read?
**A.** Its target mRNA inhibition is 19%.

**Q.** How did the target mRNA inhibition (SK-MEL-28, 4 µM) turn out when ATCCTGTAGTATGAGA (sugars k3 d10 k3, PS) was run?
**A.** Its target mRNA inhibition is 45%.

**Q.** Which target mRNA inhibition (SK-MEL-28, 4 µM) does the source give for ATCCTTAATTATGCAG (sugars k3 d10 k3, PS) here?
**A.** Its target mRNA inhibition is 39%.

**Q.** Which target mRNA inhibition (SK-MEL-28, 4 µM) does the source give for ATCGAGATCAGTCTCA (sugars k3 d10 k3, PS) here?
**A.** Its target mRNA inhibition is 76%.

**Q.** Which target mRNA inhibition (SK-MEL-28, 4 µM) does the source give for ATCGAGCGGTGAAACT (sugars k3 d10 k3, PS) here?
**A.** The target mRNA inhibition was 29%.

**Q.** How did the target mRNA inhibition (SK-MEL-28, 4 µM) turn out when ATCTACTCCAGACCCC (sugars k3 d10 k3, PS) was run?
**A.** Its target mRNA inhibition is 27%.

**Q.** How did the target mRNA inhibition (SK-MEL-28, 4 µM) turn out when ATCTATAAGATGTATA (sugars k4 d8 k4, PS) was run?
**A.** The target mRNA inhibition was 36%.

**Q.** How did the target mRNA inhibition (SK-MEL-28, 4 µM) turn out when ATCTGAATTGTTACTA (sugars k3 d10 k3, PS) was run?
**A.** The target mRNA inhibition was 12%.
